Measurements as given in US20220030868A1, “FUNGICIDAL HALOMETHYL KETONES AND HYDRATES” (FMC CORPORATION, priority 2018, published 2022).

How the values were obtained:
Phakopsora pachyrhizi = experiment: Test A: test suspension sprayed on soybean seedlings one day before inoculation with Phakopsora pachyrhizi spores (Asian soybean rust), visual disease rating; format: in vivo; settings: 100 = 100% disease control, 0 = no control; for pest or weed control at 10 ppm / pest or weed control at 50 ppm: Phakopsora pachyrhizi
Text: General protocol for preparing test suspensions for Tests A-C: the test compounds were first dissolved in acetone in an amount equal to 3% of the final volume and then suspended at the desired concentration (in ppm) in acetone and purified water (50/50 mix by volume) containing 250 ppm of the surfactant PEG400 (polyhydric alcohol esters). The resulting test suspensions were then used in Tests A-C.
The test solution was sprayed to the point of run-off on soybean seedlings. The following day the seedlings were inoculated with a spore suspension of Phakopsora pachyrhizi (the causal agent of Asian soybean rust) and incubated in a saturated atmosphere at 22° C. for 24 h, and then moved to a growth chamber at 22° C. for 8 days, after which time visual disease ratings were made.
Results for Tests A-C are given in Table A. In the Table, a rating of 100 indicates 100% disease control and a rating of 0 indicates no disease control (relative to the controls). An asterisk “*” or a double asterisk “**” next to the rating value indicates a 50 ppm or 10 ppm test suspension was used, respectively. A dash (-) indicates the compound was not tested.

[1] = tested on: Puccinia recondita f. sp. tritici; experiment: Test B: test suspension sprayed on wheat seedlings one day before inoculation with Puccinia recondita f. sp. tritici spores (wheat leaf rust), disease rating; format: in vivo; settings: 100 = 100% disease control, 0 = no control
Text: General protocol for preparing test suspensions for Tests A-C: the test compounds were first dissolved in acetone in an amount equal to 3% of the final volume and then suspended at the desired concentration (in ppm) in acetone and purified water (50/50 mix by volume) containing 250 ppm of the surfactant PEG400 (polyhydric alcohol esters). The resulting test suspensions were then used in Tests A-C. The test solution was sprayed to the point of run-off on wheat seedlings. The following day the seedlings were inoculated with a spore suspension of Puccinia recondita f. sp. tritici (the causal agent of wheat leaf rust) and incubated in a saturated atmosphere at 20° C. for 24 h, and then moved to a growth chamber at 20° C. for 6 days, after which time disease ratings were made. Results for Tests A-C are given in Table A. In the Table, a rating of 100 indicates 100% disease control and a rating of 0 indicates no disease control (relative to the controls). An asterisk “*” or a double asterisk “**” next to the rating value indicates a 50 ppm or 10 ppm test suspension was used, respectively. A dash (-) indicates the compound was not tested.

Row | Structure (SMILES) | Test A rating (disease control) (Phakopsora pachyrhizi; 10 ppm test suspension) [%] | Test B rating (disease control) ([1]; 10 ppm test suspension) [%] | also measured
1 | CCOC(=O)c1cnn(Cc2ccc(O/C=C(\OCCOC)C(F)(F)F)cc2)c1 [compound 54] | 0 | 0 | 
2 | CCOC(=O)c1csc(Cc2ccc(OCC(O)(O)C(F)(F)F)cc2)n1 [Compound 136] | 98 | 83 | 
3 | CCOC(=O)Cc1nnn(Cc2ccc(O/C=C(\OCC)C(F)(F)F)cc2)n1 [compound 83] | 82 | 0 | 
4 | O=C(NCC(F)(F)F)c1csc(Cc2ccc(OCC(O)(O)C(F)(F)F)cc2)n1 [Compound 68] | 100 | 95 | 
5 | CCO/C(=C\Oc1ccc(Cn2cnc(C(=O)OC)c2)cc1)C(F)(F)F [compound 86] | 99 | 0 | 
6 | CCOC(=O)c1cnn(COCc2ccc(O/C=C(\OCC)C(F)(F)F)cc2)c1 [Compound 297, ethyl 1-[[4-[[(1Z)-2-ethoxy-3,3,3-trifluoro-1-propen-1-yl]oxy]phenylmethoxy]methyl]-1H-pyrazole-4-carboxylate] |  |  | pest or weed control at 10 ppm (Phakopsora pachyrhizi; 10 ppm test suspension): 100%; pest or weed control at 10 ppm ([1]; 10 ppm test suspension): 0%
7 | FC(F)(F)C1(COc2ccc(Cc3ccccc3)cc2)OCCO1 [compound 192] | 0 | 0 | 
8 | CCOC(=O)c1cnn(Cc2ccc(CCC3(C(F)(F)F)OCCO3)cc2)c1 [compound 67] |  |  | Test A rating (disease control) (Phakopsora pachyrhizi; 50 ppm test suspension): 65%; Test B rating (disease control) ([1]; 50 ppm test suspension): 0%
9 | CCOC(=O)c1cnn(Cc2ccc(OCC(O)(O)C(F)(F)F)c(F)c2)c1 [compound 264] |  |  | pest or weed control at 10 ppm (Phakopsora pachyrhizi; 10 ppm test suspension): 99%; pest or weed control at 10 ppm ([1]; 10 ppm test suspension): 80%
10 | CN(C)S(=O)(=O)c1ccc(OCC(O)(O)C(F)(F)F)cc1 [Compound 34] | 0 | 80 | 
11 | CCCCOC(=O)c1cnn(Cc2ccc(OCC3(C(F)(F)F)OCCO3)cc2)c1 [compound 125] | 100 | 0 | 
12 | C=CCOC(=O)c1cnn(Cc2ccc(O/C=C(\OCC)C(F)(F)F)cc2)c1 [compound 246] | 100 | 0 | 
13 | CCCOC(=O)c1cnn(Cc2ccc(OCC(O)(O)C(F)(F)F)cc2)c1 [Compound 42] | 99 | 85 | 
14 | CCOC(=O)c1cnn(CCc2ccc(OCC3(C(F)(F)F)OCCO3)cc2)c1 [compound 133] | 79 | 0 | 
15 | FC(F)(F)c1nc(-c2ccc(OCC3(C(F)(F)F)OCCO3)cc2)no1 [compound 173] | 0 | 0 | 
16 | N#Cc1ccc(OCC2(C(F)(F)F)OCCO2)cc1 [compound 98] |  |  | Test A rating (disease control) (Phakopsora pachyrhizi; 250 ppm test suspension): 100%; Test B rating (disease control) ([1]; 250 ppm test suspension): 100%
17 | COC(=O)c1ccc(OCC(O)(O)C(F)(F)F)cc1 [Compound 229, methyl 4-(3,3,3-trifluoro-2,2-dihydroxypropoxy)phenylcarboxylate] |  |  | pest or weed control at 50 ppm (Phakopsora pachyrhizi; 50 ppm test suspension): 99%; pest or weed control at 50 ppm ([1]; 50 ppm test suspension): 100%
18 | CCCO/C(=C\Oc1ccc(Cn2cc(C(=O)OCC)cn2)cc1)C(F)(F)F [compound 65] | 100 | 0 | 
19 | O=C(NCC1CC1)c1csc(Cc2ccc(OCC(O)(O)C(F)(F)F)cc2)n1 [Compound 69] | 98 | 96 | 
20 | CCO/C(=C\Oc1ccc(C(C)=O)cc1)C(F)(F)F [compound 79] |  |  | Test A rating (disease control) (Phakopsora pachyrhizi; 50 ppm test suspension): 0%; Test B rating (disease control) ([1]; 50 ppm test suspension): 0%
21 | CCO/C(=C\Oc1cccc(Cn2cc(C(=O)OC)cn2)c1)C(F)(F)F [Compound 330, methyl 1-[[3-[[(1Z)-2-ethoxy-3,3,3-trifluoro-1-propen-1-yl]oxy]phenyl]methyl]-1H-pyrazole-4-carboxylate] |  |  | pest or weed control at 10 ppm (Phakopsora pachyrhizi; 10 ppm test suspension): 100%; pest or weed control at 10 ppm ([1]; 10 ppm test suspension): 0%
22 | CCOC(=O)c1cnn(Cc2cccc(OCC(O)(O)C(F)(F)F)c2)c1 [Compound 266, ethyl 1-[[3-(3,3,3-trifluoro-2,2-dihydroxypropoxy)phenyl]methyl]-1H-pyrazole-4-carboxylate] |  |  | pest or weed control at 50 ppm (Phakopsora pachyrhizi; 50 ppm test suspension): 86%; pest or weed control at 50 ppm ([1]; 50 ppm test suspension): 74%
23 | OC(O)(COc1ccc(OCC(O)(O)C(F)(F)F)cc1)C(F)(F)F [Compound 2] | 77 | 32 | 
24 | CCO/C(=C\Oc1ccc(C(=O)OC)cc1)C(F)(F)F [compound 230] | 0 | 0 | 

Row | Structure (SMILES) | Test A rating (disease control) (Phakopsora pachyrhizi; 10 ppm test suspension) [%] | Test B rating (disease control) ([1]; 10 ppm test suspension) [%] | also measured
25 | O=C(NCC1CC1)c1cnc(Cc2ccc(OCC3(C(F)(F)F)OCCO3)cc2)s1 [Compound 259] | 25 | 0 | 
26 | O=C(OCC(F)(F)C(F)(F)F)c1cnn(Cc2ccc(OCC(O)(O)C(F)(F)F)cc2)c1 [Compound 46] | 64 | 85 | 
27 | CCCCCCOC(=O)c1cnn(Cc2ccc(OCC(O)(O)C(F)(F)F)cc2)c1 [Compound 48] |  |  | Test A rating (disease control) (Phakopsora pachyrhizi; 50 ppm test suspension): 100%; Test B rating (disease control) ([1]; 50 ppm test suspension): 91%
28 | CC(=O)c1ccc(OCC(O)(O)C(F)(F)F)cc1 [Compound 80] |  |  | Test A rating (disease control) (Phakopsora pachyrhizi; 50 ppm test suspension): 99%; Test B rating (disease control) ([1]; 50 ppm test suspension): 100%
29 | CN(C)C(=O)C1=NOC(c2ccc(OCC(O)(O)C(F)(F)F)cc2)C1 (stereo not drawn) [Compound 41] | 92 | 23 | 
30 | C#CCOC(=O)c1cnn(Cc2ccc(OCC(O)(O)C(F)(F)F)cc2)c1 [Compound 44] | 97 | 85 | 
31 | CCO/C(=C\Oc1ccc(CNC(=O)CC(F)(F)F)cc1)C(F)(F)F [compound 113] | 0 | 0 | 
32 | CCCO/C(=C\Oc1cccc(Cn2cc(C(=O)OCC)cn2)c1)C(F)(F)F [compound 324] | 0 | 0 | 
33 | O=C(OCc1ccc(F)c(F)c1)c1cnn(Cc2ccc(OCC(O)(O)C(F)(F)F)cc2)c1 [Compound 50] | 54 | 91 | 
34 | CCO/C(=C\Oc1ccc(Cn2cc(C(=O)OCCOC)cn2)cc1)C(F)(F)F [compound 222] | 100 | 0 | 
35 | CCOC(=O)c1cnn(Cc2cccc(O/C=C(\OCC)C(F)(F)F)c2F)c1 [compound 301] |  |  | pest or weed control at 50 ppm (Phakopsora pachyrhizi; 50 ppm test suspension): 100%; pest or weed control at 50 ppm ([1]; 50 ppm test suspension): 0%
36 | O=C(NCC1CC1)c1cnn(Cc2ccc(OCC(O)(O)C(F)(F)F)cc2)c1 [Compound 36] | 70 | 0 | 
37 | CS(=O)(=O)c1ccc(OCC2(C(F)(F)F)OCCO2)cc1 [compound 24] | 81 | 91 | 
38 | O=C(OCC(F)(F)F)c1cnn(Cc2ccc(OCC3(C(F)(F)F)OCCO3)cc2)c1 [compound 134] | 89 | 32 | 
39 | FC(F)(F)C1(COc2ccc(OCC3(C(F)(F)F)OCCO3)cc2)OCCO1 [compound 28] | 0 | 0 | 
40 | C=CCO/C(=C\Oc1ccc(Cn2cc(C(=O)OCC)cn2)cc1)C(F)(F)F [compound 55] | 0 | 0 | 
41 | C#CCO/C(=C\Oc1ccc(Cn2cc(C(=O)OCC)cn2)cc1)C(F)(F)F [compound 56] | 38 | 0 | 
42 | CCO/C(=C\Oc1ccc(CN2OCC(C)(C)C2=O)cc1)C(F)(F)F [compound 92] | 0 | 0 | 
43 | CCOC(=O)c1cnn(C(C)c2ccc(O/C=C(\OCC)C(F)(F)F)cc2)c1 (stereo not drawn) [compound 267] | 94 | 0 | 
44 | CCOCc1cnn(Cc2ccc(OCC3(C(F)(F)F)OCCO3)cc2)c1 [compound 240] | 99 | 0 | 
45 | O=C(O)c1cnn(Cc2ccc(OCC3(C(F)(F)F)OCCO3)cc2)c1 [compound 93] | 96 | 0 | 
46 | CCOC(=O)c1cnn(-c2ccc(O/C=C(\OCC)C(F)(F)F)cc2)c1 [compound 316] |  |  | Test A rating (disease control) (Phakopsora pachyrhizi; 50 ppm test suspension): 100%; Test B rating (disease control) ([1]; 50 ppm test suspension): 9%
47 | CCO/C(=C\Oc1ccc(Cn2nc(C)cc2C)cc1)C(F)(F)F [compound 152] | 0 | 0 | 
48 | C=C(C)COC(=O)c1ccn(Cc2ccc(O/C=C(\OCC)C(F)(F)F)cc2)n1 [compound 358] | 100 | 0 | 
